The text below walks through data of US20120004182A1, “PHARMACEUTICAL COMPOSITIONS AND METHODS FOR INDUCTION AND ENHANCEMENT OF APOPTOSIS IN TUMOR CELLS” (priority 2010, published 2012).

In this assay the test system is human breast tumors. In words: In vivo studies in nude mice bearing s.c. tumors. The note with it: intraperitoneal, every 2 days, 10 days of treatment, 25 nmol antagonist, 1 μmol 4OH-Tamoxifen per mouse. The text has this: Female athymic (nude) mice (CD1 nu/nu), 6 to 8 weeks old on arrival, were obtained from Charles River (Sulzfeld, Germany). The mice were housed in sterile cages in a temperature-controlled room with 12-hour light/12-hour dark schedule and were fed autoclaved chow and water ad libitum. All experiments were done according to the German ethical guidelines and the German laws for protection of animals.
Tumors were initiated by subcutaneous injection of 1×10^7 cancer cells into the right flank. After 2 weeks all animals had developed solid tumors of about 200 mm^3 and treatment was initiated. The in vivo experiments were done as follows: 25 nmol of GnRH-II antagonist of Seq. ID. No. 23 without or with 1 μmol of 40H-Tamoxifen per mouse (5 mice per group and control group) were injected intraperitoneally. Treatment was repeated every 2 days. Tumor volumes were measured. The mice were killed after 10 days of treatment. […]
The proliferation and induction of apoptosis were analyzed after treatment without or with a GnRH-II antagonist without or with co-treatment with 4OH-Tamoxifen. Nude mice bearing human breast tumors s.c. were treated without or with a GnRH-II antagonist alone or in combination with 4OH-Tamoxifen and the tumor volumes were measured.

With `CC/C(=C(\c1ccccc1)c1ccc(OCCN(C)C)cc1)c1ccccc1` [Tamoxifen], the tumor volume entry is “increases”.
With “Ac-D-2Nal-D-4 Cpa-D-3 Pal-Ser-His-D-3 Pal-Trp-Leu-Pro-D-Ala-NH2 [GnRH II antagonist]”, the tumor volume result was “increases”.
